Measured values: US9695155B2, “Herbicidal substituted pyrimidinyloxy benzene compounds” (E. I. DU PONT DE NEMOURS AND COMPANY, priority 2013, dated 2017)

Legend:
barnyardgrass [1] = assay: Test C postemergence; format: in vivo, Echinochloa crus-galli; details: for Plant response rating (0 to 100), Barnyardgrass: 16 g ai/ha, 0 is no effect, 100 is complete control; for Barnyardgrass plant response rating: 31 g ai/ha, 13 to 15 days; for Barnyardgrass plant response rating / Plant response rating, Barnyardgrass: scale 0 to 100 (0 no effect, 100 complete control)
Summary of the method: (§1)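 Preemergence: seeds sown in a loam soil–sand blend and sprayed with test chemical in a non-phytotoxic solvent mixture containing surfactant. Postemergence: plants at 2 to 18 cm (1- to 4-leaf stage) in peat-based medium, treated with the same formulation. Greenhouse 13 to 15 days, then visual rating 0 (no effect) to 100 (complete control).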

barnyardgrass [2] = assay: Test A preemergence; format: in vivo, Echinochloa crus-galli
Summary of the method: (§2)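 Visual injury scored 0–100 (100 = complete control) against untreated controls about 10 days after treatment in a greenhouse. Test chemicals, formulated with surfactant in non-phytotoxic solvent, were sprayed on soil preemergence or on 2-10 cm, one- to two-leaf plants postemergence.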

barnyardgrass [3] = assay: Test C preemergence; format: in vivo, Echinochloa crus-galli; details: for Barnyardgrass plant response rating: preemergence; for Plant response rating, Barnyardgrass: Preemergence, 31 g ai/ha, scale 0 to 100, 0 no effect, 100 complete control
Summary of the method: as §1

oilseed rape = assay: Test C preemergence; format: in vivo, Brassica napus; details: preemergence
Summary of the method: as §1

blackgrass [4] = assay: Test C preemergence; format: in vivo, Alopecurus myosuroides; details: for Blackgrass plant response rating: preemergence; for Plant response rating, Blackgrass: Preemergence, 31 g ai/ha, scale 0 to 100, 0 no effect, 100 complete control
Summary of the method: as §1

giant foxtail = assay: Test A preemergence; format: in vivo, Setaria faberii
Summary of the method: as §2

morningglory = assay: Test C preemergence; format: in vivo, Ipomoea coccinea; details: preemergence
Summary of the method: as §1

Italian ryegrass = assay: Test C postemergence; format: in vivo, Lolium multiflorum; details: for Plant response rating (0 to 100), Ryegrass, Italian: 16 g ai/ha, 0 is no effect, 100 is complete control; for Ryegrass, Italian plant response rating: 31 g ai/ha, 13 to 15 days; for Ryegrass, Italian plant response rating / Plant response rating, Ryegrass, Italian: scale 0 to 100 (0 no effect, 100 complete control)
Summary of the method: as §1

lambsquarters = assay: Test C postemergence; format: in vivo, Chenopodium album; details: for Plant response rating (0 to 100), Lambsquarters: 16 g ai/ha, 0 is no effect, 100 is complete control; for Lambsquarters plant response rating: 31 g ai/ha, 13 to 15 days; for Lambsquarters plant response rating / Plant response rating, Lambsquarters: scale 0 to 100 (0 no effect, 100 complete control)
Summary of the method: as §1

corn [5] = assay: Test C preemergence; format: in vivo, Zea mays; details: for Corn plant response rating: preemergence; for Plant response rating, Corn: Preemergence, 31 g ai/ha, scale 0 to 100, 0 no effect, 100 complete control
Summary of the method: as §1

blackgrass [6] = assay: Test C postemergence; format: in vivo, Alopecurus myosuroides; details: for Plant response rating (0 to 100), Blackgrass: 16 g ai/ha, 0 is no effect, 100 is complete control; for Blackgrass plant response rating: 31 g ai/ha, 13 to 15 days; for Blackgrass plant response rating / Plant response rating, Blackgrass: scale 0 to 100 (0 no effect, 100 complete control)
Summary of the method: as §1

ragweed = assay: Test C preemergence; format: in vivo, Ambrosia elatior; details: preemergence
Summary of the method: as §1

corn [7] = assay: Test C postemergence; format: in vivo, Zea mays; details: for Plant response rating (0 to 100), Corn: 16 g ai/ha, 0 is no effect, 100 is complete control; for Corn plant response rating: 31 g ai/ha, 13 to 15 days; for Corn plant response rating / Plant response rating, Corn: scale 0 to 100 (0 no effect, 100 complete control)
Summary of the method: as §1

waterhemp [8] = assay: Test C preemergence; format: in vivo, Amaranthus rudis; details: preemergence
Summary of the method: as §1

soybean = assay: Test C preemergence; format: in vivo, Glycine max; details: preemergence
Summary of the method: as §1

pigweed = assay: Test C postemergence; format: in vivo, Amaranthus retroflexus; details: for Plant response rating (0 to 100), Pigweed: 16 g ai/ha, 0 is no effect, 100 is complete control; for Pigweed plant response rating: 31 g ai/ha, 13 to 15 days; for Pigweed plant response rating / Plant response rating, Pigweed: scale 0 to 100 (0 no effect, 100 complete control)
Summary of the method: as §1

waterhemp [9] = assay: Test C postemergence; format: in vivo, Amaranthus rudis; details: for Plant response rating (0 to 100), Waterhemp: 16 g ai/ha, 0 is no effect, 100 is complete control; for Waterhemp plant response rating: 31 g ai/ha, 13 to 15 days; for Waterhemp plant response rating / Plant response rating, Waterhemp: scale 0 to 100 (0 no effect, 100 complete control)
Summary of the method: as §1

[10] = 125 g ai/ha, postemergence, visual rating
[11] = 125 g ai/ha, 0 to 100 scale where 0 is no effect and 100 is complete control
[12] = 500 g ai/ha, 0 to 100 scale where 0 is no effect and 100 is complete control
[13] = 16 g ai/ha, scale 0 to 100 (0 no effect, 100 complete control)
[14] = 62 g ai/ha, scale 0 (no effect) to 100 (complete control)
[15] = 125 g ai/ha, scale 0 (no effect) to 100 (complete control)
[16] = 1000 g ai/ha, 0 to 100 scale, 0 no effect, 100 complete control, approx. 10 days

CCCOc1cnn(-c2c(C#N)cccc2Oc2ncc(Cl)cn2)c1 [Compound 150]
Plant response rating (0 to 100), Barnyardgrass (barnyardgrass [1]; postemergence): 5 | Barnyardgrass plant response rating (barnyardgrass [1]; postemergence, visual rating): 5 | Plant response rating, Barnyardgrass (barnyardgrass [1]; [10]): 5 | Plant response rating, Barnyardgrass (barnyardgrass [1]; Postemergence, 62 g ai/ha): 5 | Plant response rating, Barnyardgrass (barnyardgrass [2]; [11]): 90 | Barnyardgrass plant response rating (barnyardgrass [2]; [12]): 100 | Barnyardgrass plant response rating (barnyardgrass [3]; [13]): 5 | Barnyardgrass plant response rating (barnyardgrass [3]; [14]): 65 | Barnyardgrass plant response rating (barnyardgrass [3]; [15]): 80 | Plant response rating, Barnyardgrass (barnyardgrass [3]): 20 | Oilseed Rape plant response rating (oilseed rape; [13]): 0 | Oilseed Rape plant response rating (oilseed rape; [14]): 90 | Oilseed Rape plant response rating (oilseed rape; [15]): 100 | Blackgrass plant response rating (blackgrass [4]; [13]): 0 | Blackgrass plant response rating (blackgrass [4]; [14]): 50 | Blackgrass plant response rating (blackgrass [4]; [15]): 50 | Plant response rating, Blackgrass (blackgrass [4]): 10 | Plant response rating, Foxtail, Giant (giant foxtail; [11]): 100 | Foxtail, Giant plant response rating (giant foxtail; [12]): 100 | Morningglory plant response rating (morningglory; [13]): 0 | Morningglory plant response rating (morningglory; [14]): 45 | Morningglory plant response rating (morningglory; [15]): 75 | Plant response rating (0 to 100), Ryegrass, Italian (Italian ryegrass; postemergence): 0 | Ryegrass, Italian plant response rating (Italian ryegrass; postemergence, visual rating): 0 | Plant response rating, Ryegrass, Italian (Italian ryegrass; [10]): 5 | Plant response rating, Ryegrass, Italian (Italian ryegrass; Postemergence, 62 g ai/ha): 5 | Plant response rating (0 to 100), Lambsquarters (lambsquarters; postemergence): 10 | Lambsquarters plant response rating (lambsquarters; postemergence, visual rating): 30 | Plant response rating, Lambsquarters (lambsquarters; [10]): 80 | Plant response rating, Lambsquarters (lambsquarters; Postemergence, 62 g ai/ha): 35 | Corn plant response rating (corn [5]; [13]): 0 | Corn plant response rating (corn [5]; [14]): 25 | Corn plant response rating (corn [5]; [15]): 45 | Plant response rating, Corn (corn [5]): 0 | Plant response rating (0 to 100), Blackgrass (blackgrass [6]; postemergence): 5 | Blackgrass plant response rating (blackgrass [6]; postemergence, visual rating): 5 | Plant response rating, Blackgrass (blackgrass [6]; [10]): 10 | Plant response rating, Blackgrass (blackgrass [6]; Postemergence, 62 g ai/ha): 10 | Ragweed plant response rating (ragweed; [13]): 0 | Ragweed plant response rating (ragweed; [14]): 25 | Ragweed plant response rating (ragweed; [15]): 55 | Plant response rating (0 to 100), Corn (corn [7]; postemergence): 5 | Corn plant response rating (corn [7]; postemergence, visual rating): 10 | Plant response rating, Corn (corn [7]; [10]): 10 | Plant response rating, Corn (corn [7]; Postemergence, 62 g ai/ha): 10 | Waterhemp plant response rating (waterhemp [8]; [13]): 20 | Waterhemp plant response rating (waterhemp [8]; [14]): 98 | Waterhemp plant response rating (waterhemp [8]; [15]): 98 | Soybean plant response rating (soybean; [13]): 0 | Soybean plant response rating (soybean; [14]): 45 | Soybean plant response rating (soybean; [15]): 90 | Plant response rating (0 to 100), Pigweed (pigweed; postemergence): 40 | Pigweed plant response rating (pigweed; postemergence, visual rating): 55 | Plant response rating, Pigweed (pigweed; [10]): 65 | Plant response rating, Pigweed (pigweed; Postemergence, 62 g ai/ha): 55 | Plant response rating (0 to 100), Waterhemp (waterhemp [9]; postemergence): 35 | Waterhemp plant response rating (waterhemp [9]; postemergence, visual rating): 35 | Plant response rating, Waterhemp (waterhemp [9]; [10]): 65 | Plant response rating, Waterhemp (waterhemp [9]; Postemergence, 62 g ai/ha): 35

FCc1cn(-c2c(F)cccc2Oc2ncc(Cl)cn2)nn1 [Compound 154]
Plant response rating (0 to 100), Barnyardgrass (barnyardgrass [1]; postemergence): 5 | Barnyardgrass plant response rating (barnyardgrass [1]; postemergence, visual rating): 5 | Plant response rating, Barnyardgrass (barnyardgrass [1]; [10]): 20 | Plant response rating, Barnyardgrass (barnyardgrass [1]; Postemergence, 62 g ai/ha): 10 | Barnyardgrass plant response rating (barnyardgrass [2]; [16]): 100 | Barnyardgrass plant response rating (barnyardgrass [3]; [13]): 5 | Barnyardgrass plant response rating (barnyardgrass [3]; [14]): 70 | Barnyardgrass plant response rating (barnyardgrass [3]; [15]): 100 | Plant response rating, Barnyardgrass (barnyardgrass [3]): 25 | Oilseed Rape plant response rating (oilseed rape; [13]): 98 | Oilseed Rape plant response rating (oilseed rape; [14]): 100 | Oilseed Rape plant response rating (oilseed rape; [15]): 100 | Blackgrass plant response rating (blackgrass [4]; [13]): 0 | Blackgrass plant response rating (blackgrass [4]; [14]): 20 | Blackgrass plant response rating (blackgrass [4]; [15]): 90 | Plant response rating, Blackgrass (blackgrass [4]): 10 | Foxtail, Giant plant response rating (giant foxtail; [16]): 100 | Morningglory plant response rating (morningglory; [13]): 10 | Morningglory plant response rating (morningglory; [14]): 50 | Morningglory plant response rating (morningglory; [15]): 85 | Plant response rating (0 to 100), Ryegrass, Italian (Italian ryegrass; postemergence): 0 | Ryegrass, Italian plant response rating (Italian ryegrass; postemergence, visual rating): 0 | Plant response rating, Ryegrass, Italian (Italian ryegrass; [10]): 0 | Plant response rating, Ryegrass, Italian (Italian ryegrass; Postemergence, 62 g ai/ha): 0 | Plant response rating (0 to 100), Lambsquarters (lambsquarters; postemergence): 20 | Lambsquarters plant response rating (lambsquarters; postemergence, visual rating): 55 | Plant response rating, Lambsquarters (lambsquarters; [10]): 70 | Plant response rating, Lambsquarters (lambsquarters; Postemergence, 62 g ai/ha): 60 | Corn plant response rating (corn [5]; [13]): 5 | Corn plant response rating (corn [5]; [14]): 5 | Corn plant response rating (corn [5]; [15]): 10 | Plant response rating, Corn (corn [5]): 0 | Plant response rating (0 to 100), Blackgrass (blackgrass [6]; postemergence): 0 | Blackgrass plant response rating (blackgrass [6]; postemergence, visual rating): 0 | Plant response rating, Blackgrass (blackgrass [6]; [10]): 0 | Plant response rating, Blackgrass (blackgrass [6]; Postemergence, 62 g ai/ha): 0 | Ragweed plant response rating (ragweed; [13]): 75 | Ragweed plant response rating (ragweed; [14]): 95 | Ragweed plant response rating (ragweed; [15]): 90 | Plant response rating (0 to 100), Corn (corn [7]; postemergence): 0 | Corn plant response rating (corn [7]; postemergence, visual rating): 0 | Plant response rating, Corn (corn [7]; [10]): 0 | Plant response rating, Corn (corn [7]; Postemergence, 62 g ai/ha): 0 | Waterhemp plant response rating (waterhemp [8]; [13]): 100 | Waterhemp plant response rating (waterhemp [8]; [14]): 100 | Waterhemp plant response rating (waterhemp [8]; [15]): 100 | Soybean plant response rating (soybean; [13]): 50 | Soybean plant response rating (soybean; [14]): 80 | Soybean plant response rating (soybean; [15]): 95 | Plant response rating (0 to 100), Pigweed (pigweed; postemergence): 25 | Pigweed plant response rating (pigweed; postemergence, visual rating): 30 | Plant response rating, Pigweed (pigweed; [10]): 75 | Plant response rating, Pigweed (pigweed; Postemergence, 62 g ai/ha): 60 | Plant response rating (0 to 100), Waterhemp (waterhemp [9]; postemergence): 5 | Waterhemp plant response rating (waterhemp [9]; postemergence, visual rating): 60 | Plant response rating, Waterhemp (waterhemp [9]; [10]): 70 | Plant response rating, Waterhemp (waterhemp [9]; Postemergence, 62 g ai/ha): 65
